# Test results as given in PubChem BioAssay (NCI).
# “And” between values parts separate entries of the source, which are not always exact repeats. Equal values may be shown once.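 Values below derive from 48-hour exposures of cells grown in 96-well plates, with endpoints linearly interpolated between the two concentrations bracketing the appropriate inhibition level. GI50: concentration for 50% inhibition of growth. At the TGI there is no net growth.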
# How the values were obtained:
# Test in all cases: NCI tumour cell line growth inhibition, 48 h
# HCT-116 colon = tested on: HCT-116 colon
# HS 578T breast = tested on: HS 578T breast
# HT29 colon = tested on: HT29 colon
# K-562 leukemia = tested on: K-562 leukemia
# NCI-H460 lung = tested on: NCI-H460 lung
# OVCAR-8 ovarian = tested on: OVCAR-8 ovarian
# RPMI-8226 leukemia = tested on: RPMI-8226 leukemia
# RXF 393 renal = tested on: RXF 393 renal
# SF-268 CNS = tested on: SF-268 CNS
# SNB-19 CNS = tested on: SNB-19 CNS
Compound,GI50 (HCT-116 colon),TGI (HCT-116 colon) [µM],GI50 (HS 578T breast),TGI (HS 578T breast) [µM],GI50 (HT29 colon),TGI (HT29 colon) [µM],GI50 (K-562 leukemia),TGI (K-562 leukemia) [µM],GI50 (NCI-H460 lung),TGI (NCI-H460 lung) [µM],GI50 (OVCAR-8 ovarian),TGI (OVCAR-8 ovarian) [µM],GI50 (RPMI-8226 leukemia) [µM],TGI (RPMI-8226 leukemia) [µM],GI50 (RXF 393 renal) [µM],TGI (RXF 393 renal) [µM],GI50 (SF-268 CNS) [µM],TGI (SF-268 CNS) [µM],GI50 (SNB-19 CNS) [µM],TGI (SNB-19 CNS) [µM]
Nc1no[n+]([O-])c1-c1nnc2c(n1)-c1ccccc1C2=O,1.38 µM,3.62,5.58 µM,65,2.41 µM,6.74,1.26 µM,4.54,3.38 µM,11.4,3.19 µM,10.4,2.76,7.73,3.22,12.4,4.4,17.3,4.88,16.7
Cc1nn(-c2ccccc2)c2nc(C)n(-c3ccc(Br)cc3)c(=O)c12,0.425 µM,> 65.4,0.371 µM,> 100,0.355 µM,> 31.6,0.302 µM,> 100,0.451 µM,> 39.1,0.965 µM,> 100,0.571,> 54.6,0.286,0.972,2.33,> 100,0.547,> 100
CCC(C(=O)[C@@H](C)[C@@H](O)[C@H](C)[C@@H]1O[C@@H]([C@@H](CC)C(=O)ONC(=O)c2ccccc2)CC[C@@H]1C)[C@H]1O[C@]2(C=CC(=O)[C@]3(CC[C@@](C)([C@H]4CC[C@](O)(CC)[C@H](C)O4)O3)O2)[C@H](C)C[C@@H]1C (some centres undefined),0.36 µM,1.91,0.0991 µM,2.58,0.387 µM,2.1,0.171 µM,1.79,0.331 µM,2.09,0.251 µM,2.77,0.0838,2.3,0.0957,1.74,0.977,3.11,0.588,3.43
Cc1ccc(NC2=CC(=O)C(=O)c3ccccc32)cc1,2.23 µM,9.13,2.54 µM,7.26,2.14 µM,4.47,3.47 µM,> 100,1.7 µM,3.94,2.4 µM,7.82,3.55,> 100,3.32,13.7,2.78,12.1,2.09,4.96
COc1ccc2nc3ccccc3c(NCc3ccccc3)c2c1,1.72 µM,5.25,2.19 µM,5.57,1.8 µM,6.23,2.43 µM,11.5,2.19 µM,4.86,2.76 µM,9.32,1.93,4.49,1.53,3.13,2.94,9.71,3.41,13.7
CC1(C)CN(CCNc2nccc(-c3c(-c4cccc(O)c4)nc4sccn34)n2)S(=O)(=O)N1,5.05 µM,> 33.2,4.72 µM,25,3.2 µM,> 33.2,6.46 µM,> 33.2,7.07 µM,> 33.2,0.307 µM,> 33.2,16.6,> 33.2,3,21.6,21.8,> 33.2,> 33.2,> 33.2
C(=C\c1ccc(OCC2CO2)cc1)/C1=NCOC1 (centres undefined),7.01 µM,24.1,16 µM,54.2,6.73 µM,25.8,4.23 µM,> 100,19.9 µM,57.7,5.81 µM,28,13.1,37.2,2.05,6.34,7.3,33.8,4.73,29.2
NCCCNc1nc2ccccc2c2c(=O)c3cc(F)cc(Cl)c3sc12,1.72 µM,3.12,1.68 µM,3.62,1.75 µM,3.29,1.78 µM,4.1,1.64 µM,3.11,1.81 µM,3.83,2.13,5.03,1.62,3.16,1.61,3.29,1.77,3.33
NC(Cc1c[nH]c2cccc(F)c12)C(=O)O (centres undefined),43.8 µM and 305 µM,1000,62.9 µM and 501 µM,> 4500,36.5 µM and 300 µM,2620,68.5 µM and 269 µM,> 4500,34.9 µM and 235 µM,2460,72.5 µM and 522 µM,2820,–,> 4500,1320,> 4500,801,> 4500,1120,> 4500
Cc1ccc(C2C3Cc4ccccc4C3=NN2c2ccc(S(=O)(=O)NC(=O)Nc3ccccc3)cc2)cc1 (centres undefined),3.4 µM,49.1,17.4 µM,49.9,24.3 µM,> 100,11.5 µM,26.8,19.3 µM,70.1,21.6 µM,> 100,15,47.2,16,38.5,17.5,55,25.4,> 100
CC(=N/NC(N)=S)/C(C)=N/NC(N)=S,–,> 100,–,> 100,–,> 100,–,> 100,–,> 100,–,> 100,–,> 100,–,> 100,–,> 100,–,> 100
CCOC(=O)c1cc2c(n1Cc1cc(OC)cc(OC)c1)-c1oncc1CC2,0.157 µM,> 100,0.156 µM,> 96.2,0.073 µM,> 100,0.0518 µM,> 100,0.139 µM,> 37.8,0.475 µM,> 100,0.354,> 35.4,0.136,> 100,3.18,> 100,0.544,> 100
C/C(=N\NC(=S)N1CCN(c2ccccn2)CC1)c1cccc2cccnc12,–,6.71,–,> 100,–,21.2,–,> 100,–,> 100,–,> 100,–,20.2,–,> 100,–,> 100,–,> 100
